Measurements from paper PMC5467912, “Asymmetric regulation of quorum-sensing receptors drives autoinducer-specific gene expression programs in Vibrio cholerae” (PLoS Genetics, 2017).
Several values for one entry are separate records, joined by “and”; a condition that tells them apart may be missing. Identical values can stand only once. Like-named read-outs stand apart in the source and are kept apart here.

How the values were obtained:
CqsS F162A = test: CqsS-dependent repression of qrr4-gfp, CqsS F162A (Fig 7C); assay type: cell-based, Vibrio cholerae; conditions: Treatment 1uM; CqsS mutant F162A
[1] = tested on: QS-controlled luxCDABE operon; assay type: cell-based; conditions: for RLU: PluxPQ-CqsS::3XFLAG LuxS-CqsA-
VCA0107-GFP = test: Qrr4 regulation of VCA0107-GFP translational fusion, anhydrous tetracycline-inducible qrr4 (S4 Fig); assay type: cell-based, E. coli
Excerpt: We examined whether Qrr regulation of CqsS is direct or indirect using a CqsS-mKATE2 translational fusion in E. coli expressing inducible qrr4. We reasoned that, if CqsS production is controlled by Qrr4, repression of CqsS-mKATE2 should occur when Qrr4 is induced. We verified that our system works by showing that inducible Qrr4 is capable of repressing a previously-identified direct target, VCA0107-GFP [24]. However, no repression of CqsS-mKATE2 occurred following induction of Qrr4 (S4 Fig).
To assay qrr4 regulation of cqsS, the relative fluorescence of translational fusions (VCA0107B-GFP and CqsS-mKATE2) was measured in E. coli BWR1. E. coli carrying one of these plasmids also contained either an empty plasmid (pZA31) or pZA31 carrying anhydrous tetracycline-inducible qrr4. Qrr4-mediated repression of CqsS-mKATE2 was assessed. VCA0107-GFP is a known Qrr4-repressed target and was used as a positive control to show the system was functional. Overnight cultures were diluted 1:50 into fresh medium and aliquotted in triplicate into 96 well plates. […] OD600 and fluorescence were assessed using an Envision 2103 Multilabel Reader (Perkin Elmer).
Supplementary file pgen.1006826.s008.tiff: S4 Fig Qrr4 indirectly regulates cqsS. Fluorescence from plasmid-encoded VCA0107-GFP (circles) and CqsS-mKATE2 (squares) was measured in E. coli. Either an empty vector (pZA31-lucNB, black) or pZA31-lucNB carrying tetracycline-inducible qrr4 (pYS245, red) was present in each strain. VCA0107 encodes a type VI secretion system component that is regulated by Qrr4. Data represent two experiments conducted in triplicate. Error bars represent standard errors of the mean. (TIFF) Click here for additional data file.

## CCCCCCCCCC(=O)[C@@H](O)CC [CAI-1, (S)-3-hydroxytridecan-4-one]
CqsS F162A
  Qrr4-GFP/OD600: 18299880 and 17516110 and 17110990
[1]; OD600 0.0561
  RLU: 7.33E+06 RLU
[1]; OD600 0.3257
  RLU: 8.15E+05 RLU
[1]; OD600 1.037
  RLU: 1.96E+05 RLU
[1]; OD600 1.243
  RLU: 3.52E+06 RLU
[1]; OD600 1.958
  RLU: 2.58E+09 RLU
[1]; OD600 2.673
  RLU: 3.36E+09 RLU
[1]; S9B Fig
  QS response when cqsS is under the luxPQ promoter: incapable of inducing the premature response

## Cc1c2c(c(O)c3c(O)cccc13)C(=O)[C@]1(O)C(=O)C(C(N)=O)=C(O)[C@@H](N(C)C)[C@@H]1C2 [aTc]
VCA0107-GFP; pVC107 Qrr4, aTc 0.0976562 ng/ml (normalization point)
  Relative reporter signal, experimental averages: 1
VCA0107-GFP; pVC107 Qrr4, aTc 0.195312 ng/ml, normalized to 0.0976562 ng/ml
  Relative reporter signal, experimental averages: 1.025 and 0.934
VCA0107-GFP; pVC107 Qrr4, aTc 0.390625 ng/ml, normalized to 0.0976562 ng/ml
  Relative reporter signal, experimental averages: 1.044 and 1.031
VCA0107-GFP; pVC107 Qrr4, aTc 0.78125 ng/ml, normalized to 0.0976562 ng/ml
  Relative reporter signal, experimental averages: 1.069 and 1.04
VCA0107-GFP; pVC107 Qrr4, aTc 1.5625 ng/ml
  Relative reporter signal, single replicates: 0.9829 and 1.022 and 1.084 and 1.082 and 1.066 and 1.076
VCA0107-GFP; pVC107 Qrr4, aTc 1.5625 ng/ml, normalized to 0.0976562 ng/ml
  Relative reporter signal, experimental averages: 1.075 and 1.029
VCA0107-GFP; pVC107 Qrr4, aTc 3.125 ng/ml
  Relative reporter signal, single replicates: 0.9883 and 0.983 and 1.044 and 1.076 and 1.038 and 1.063
VCA0107-GFP; pVC107 Qrr4, aTc 3.125 ng/ml, normalized to 0.0976562 ng/ml
  Relative reporter signal, experimental averages: 1.059 and 1.005
VCA0107-GFP; pVC107 Qrr4, aTc 6.25 ng/ml
  Relative reporter signal, single replicates: 0.8986 and 0.9025 and 1.018 and 1.038 and 1.0458 and 1.143
VCA0107-GFP; pVC107 Qrr4, aTc 6.25 ng/ml, normalized to 0.0976562 ng/ml
  Relative reporter signal, experimental averages: 1.075 and 0.9397
VCA0107-GFP; pVC107 Qrr4, aTc 12.5 ng/ml
  Relative reporter signal, single replicates: 0.8122 and 0.8585 and 0.963 and 0.9294 and 0.9674 and 1.0333
VCA0107-GFP; pVC107 Qrr4, aTc 12.5 ng/ml, normalized to 0.0976562 ng/ml
  Relative reporter signal, experimental averages: 0.9767 and 0.8779
VCA0107-GFP; pVC107 Qrr4, aTc 25 ng/ml
  Relative reporter signal, single replicates: 0.8439 and 0.8636 and 0.8571 and 0.6965 and 0.6285 and 0.7212
VCA0107-GFP; pVC107 Qrr4, aTc 25 ng/ml, normalized to 0.0976562 ng/ml
  Relative reporter signal, experimental averages: 0.6821 and 0.8548
VCA0107-GFP; pVC107 Qrr4, aTc 50 ng/ml
  Relative reporter signal, single replicates: 0.8785 and 0.8105 and 0.7819 and 0.6416 and 0.6171 and 0.6104
VCA0107-GFP; pVC107 Qrr4, aTc 50 ng/ml, normalized to 0.0976562 ng/ml
  Relative reporter signal, experimental averages: 0.623 and 0.8236
VCA0107-GFP; pVC107 Qrr4, aTc 100 ng/ml
  Relative reporter signal, single replicates: 0.9222 and 0.8261 and 0.8207 and 0.6781 and 0.6674 and 0.7021
VCA0107-GFP; pVC107 Qrr4, aTc 100 ng/ml, normalized to 0.0976562 ng/ml
  Relative reporter signal, experimental averages: 0.6825 and 0.8563
VCA0107-GFP; pVC107 Qrr4, aTc 200 ng/ml
  Relative reporter signal, single replicates: 0.9029 and 0.8931 and 0.8706 and 0.7542 and 0.8262 and 0.8413
VCA0107-GFP; pVC107 Qrr4, aTc 200 ng/ml, normalized to 0.0976562 ng/ml
  Relative reporter signal, experimental averages: 0.8072 and 0.8889
VCA0107-GFP; pVC107 vector, aTc 0.0976562 ng/ml (normalization point)
  Relative reporter signal, experimental averages: 1
VCA0107-GFP; pVC107 vector, aTc 0.195312 ng/ml, normalized to 0.0976562 ng/ml
  Relative reporter signal, experimental averages: 1.1928 and 0.9542
VCA0107-GFP; pVC107 vector, aTc 0.390625 ng/ml, normalized to 0.0976562 ng/ml
  Relative reporter signal, experimental averages: 1.239 and 0.9963
VCA0107-GFP; pVC107 vector, aTc 0.78125 ng/ml
  Relative reporter signal, single replicates: 1.048 and 0.979 and 1.04 and 0.9279
VCA0107-GFP; pVC107 vector, aTc 0.78125 ng/ml, normalized to 0.0976562 ng/ml
  Relative reporter signal, experimental averages: 1.09 and 0.9823
VCA0107-GFP; pVC107 vector, aTc 1.5625 ng/ml
  Relative reporter signal, single replicates: 1.061 and 1.021 and 0.9897 and 0.9644 and 1.121 and 1.094
VCA0107-GFP; pVC107 vector, aTc 1.5625 ng/ml, normalized to 0.0976562 ng/ml
  Relative reporter signal, experimental averages: 1.092 and 0.9917
VCA0107-GFP; pVC107 vector, aTc 3.125 ng/ml
  Relative reporter signal, single replicates: 0.9263 and 0.9693 and 1.011 and 0.9278 and 1.0391 and 1.108
VCA0107-GFP; pVC107 vector, aTc 3.125 ng/ml, normalized to 0.0976562 ng/ml
  Relative reporter signal, experimental averages: 1.024 and 0.9695
VCA0107-GFP; pVC107 vector, aTc 6.25 ng/ml
  Relative reporter signal, single replicates: 0.9938 and 0.9834 and 0.9842 and 0.9532 and 1.085 and 1.105
VCA0107-GFP; pVC107 vector, aTc 6.25 ng/ml, normalized to 0.0976562 ng/ml
  Relative reporter signal, experimental averages: 1.061 and 0.9736
VCA0107-GFP; pVC107 vector, aTc 12.5 ng/ml
  Relative reporter signal, single replicates: 0.9967 and 0.9285 and 1.002 and 0.9658 and 1.022 and 1.055
VCA0107-GFP; pVC107 vector, aTc 12.5 ng/ml, normalized to 0.0976562 ng/ml
  Relative reporter signal, experimental averages: 1.025 and 0.9655
VCA0107-GFP; pVC107 vector, aTc 25 ng/ml
  Relative reporter signal, single replicates: 1.488 and 0.9589 and 0.9637 and 0.9614 and 1.035 and 1.177
VCA0107-GFP; pVC107 vector, aTc 25 ng/ml, normalized to 0.0976562 ng/ml
  Relative reporter signal, experimental averages: 1.233 and 0.9614
VCA0107-GFP; pVC107 vector, aTc 50 ng/ml
  Relative reporter signal, single replicates: 1.1512 and 1.025 and 1.023 and 0.9608 and 1.174 and 1.186
VCA0107-GFP; pVC107 vector, aTc 50 ng/ml, normalized to 0.0976562 ng/ml
  Relative reporter signal, experimental averages: 1.17 and 1.003
VCA0107-GFP; pVC107 vector, aTc 100 ng/ml
  Relative reporter signal, single replicates: 1.032 and 0.8995 and 0.9791 and 1.0414 and 1.344 and 1.183
VCA0107-GFP; pVC107 vector, aTc 100 ng/ml, normalized to 0.0976562 ng/ml
  Relative reporter signal, experimental averages: 1.1863 and 0.9733
VCA0107-GFP; pVC107 vector, aTc 200 ng/ml
  Relative reporter signal, single replicates: 1.427 and 1.005 and 1.106 and 1.055 and 1.369 and 1.3707
VCA0107-GFP; pVC107 vector, aTc 200 ng/ml, normalized to 0.0976562 ng/ml
  Relative reporter signal, experimental averages: 1.389 and 1.0553
